Results: patent US20220056019A1, “FARNESOID X RECEPTOR AGONISTS AND USES THEREOF” (Metacrine, Inc., priority 2018, published 2022)
pEC50: −log10 of the molar value.

Target: T1, hFXR (Homo sapiens, UniProt Q96RI1)
T1 construct: expressed in transfected cells; host or cells: CV-1 cells
T1 sequence (Q96RI1 1-486): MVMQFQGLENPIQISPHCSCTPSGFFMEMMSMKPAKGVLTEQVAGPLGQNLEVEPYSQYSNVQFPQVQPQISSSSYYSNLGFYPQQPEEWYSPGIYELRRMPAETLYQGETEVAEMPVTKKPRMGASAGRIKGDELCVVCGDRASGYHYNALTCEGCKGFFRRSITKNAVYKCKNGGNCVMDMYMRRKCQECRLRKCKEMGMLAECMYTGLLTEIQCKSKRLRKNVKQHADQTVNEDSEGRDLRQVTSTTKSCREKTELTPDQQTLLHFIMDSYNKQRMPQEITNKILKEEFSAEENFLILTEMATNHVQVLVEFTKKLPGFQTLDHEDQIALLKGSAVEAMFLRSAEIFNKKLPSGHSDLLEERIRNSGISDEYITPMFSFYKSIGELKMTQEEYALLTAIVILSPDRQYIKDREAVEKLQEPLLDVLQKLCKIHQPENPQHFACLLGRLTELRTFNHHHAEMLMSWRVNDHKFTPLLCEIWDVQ
T1 sequence (P19793 1-462 partner): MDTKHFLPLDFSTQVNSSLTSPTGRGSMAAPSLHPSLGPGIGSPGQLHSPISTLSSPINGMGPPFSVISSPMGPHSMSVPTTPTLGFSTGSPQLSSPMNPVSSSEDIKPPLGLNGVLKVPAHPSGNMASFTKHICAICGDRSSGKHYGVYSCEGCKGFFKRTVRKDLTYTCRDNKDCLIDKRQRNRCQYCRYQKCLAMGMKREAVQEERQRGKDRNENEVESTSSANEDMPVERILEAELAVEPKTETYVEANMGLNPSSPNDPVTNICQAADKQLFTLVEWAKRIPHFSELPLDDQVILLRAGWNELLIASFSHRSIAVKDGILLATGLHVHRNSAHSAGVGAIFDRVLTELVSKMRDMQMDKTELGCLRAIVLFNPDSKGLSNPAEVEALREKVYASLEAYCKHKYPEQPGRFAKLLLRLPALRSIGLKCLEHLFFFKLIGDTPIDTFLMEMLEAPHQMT
Assay: In Vitro FXR Assay (TK): TK-ECRE-luc reporter in transfected CV-1 cells
Assay type: cell-based
Conditions: 18 hrs incubation, luminescence
How it was run: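 CV-1 cells in DMEM with 10% charcoal-stripped FBS were transiently co-transfected with hFXR, hRXR, TK-ECRE-luc reporter and pCMX-YFP plasmids over 18 h at 37 °C. Compounds serially diluted in DMSO were added for 18 h; cells were then lysed and luciferase luminescence measured.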

pEC50 | Compound
≥ 7.30 | COc1ccc(C23CCC(CN(c4cc(-c5cnn(C(C)C)c5)ccn4)C(=O)[C@H]4CC[C@H](OC(=O)N5CC(C(C)C)C5)CC4)(CC2)CC3)cc1C [Compound 23.12, 4-((4-(1-Isopropyl-1H-pyrazol-4-yl)pyridin-2-yl)((4-(4-methoxy-3-methylphenyl)bicyclo[2.2.2]oc-tan-1-yl)methyl)carbamoyl)cyclo-hexyl trans-3-isopropyl-azetidine-1-carboxylate]
≥ 7.30 | COc1ccc(C23CCC(CN(c4cc(-c5cnn(C(C)C)c5)ccn4)C(=O)[C@H]4CC[C@H](OC(=O)N5CC(OC(C)C)C5)CC4)(CC2)CC3)cc1C [Compound 23.11, 4-((4-(1-Isopropyl-1H-pyrazol-4-yl)pyridin-2-yl)((4-(4-methoxy-3-methylphenyl)bicyclo[2.2.2]octan-1-yl)methyl)carbamoyl)(trans-cyclohexyl) 3-isopropoxy-azetidine-1-carboxylate]
≥ 7.30 | COc1ccc(C23CCC(CN(c4cncc(-c5cnn(C6(C)CCC6)c5)n4)C(=O)[C@H]4CC[C@H](OC(=O)N5CC(O)C5)CC4)(CC2)CC3)cc1C [Compound 25.27, 4-(((4-(4-Methoxy-3-methylphenyl)bicyclo[2.2.2]octan-1-yl)methyl)(6-(1-(1-methylcyclobutyl)-1H-pyrazol-4-yl)pyrazin-2-yl)carbamoyl)cyclohexyl trans-3-hydroxyazetidine-1-carboxylate]
≥ 7.30 | COc1ccc(C23CCC(CN(c4cc(-c5cnn(C(C)C)c5)ccn4)C(=O)[C@H]4CC[C@H](OC(=O)N5CC(O)C5)CC4)(CC2)CC3)nc1C [Compound 26.20, 4-((4-(1-Isopropyl-1H-pyrazol-4-yl)pyridin-2-yl)((4-(5-methoxy-6-methylpyridin-2-yl)bicyclo[2.2.2]octan-1-yl)methyl)carbamoyl)cyclohexyl trans-3-hydroxyazetidine-1-carboxylate]
≥ 7.30 | COc1ccc(C23CCC(CN(c4cc(-c5cnn(C(C)C)c5)ncn4)C(=O)[C@H]4CC[C@H](OC(=O)N5CC(CS(C)(=O)=O)C5)CC4)(CC2)CC3)cc1C [Compound 23.21, 4-((6-(1-Isopropyl-1H-pyrazol-4-yl)pyrimidin-4-yl)((4-(4-methoxy-3-methylphenyl)bicyclo[2.2.2]octan-1-yl)methyl)carbamoyl)(trans-cyclohexyl) 3-((methylsulfonyl)meth-yl)azetidine-1-carboxylate]
≥ 7.30 | COc1ccc(C23CCC(CN(c4cc(-c5cnn(C(C)C)c5)ccn4)C(=O)[C@H]4CC[C@H](OC(=O)N5CC(O)C5)CC4)(CC2)CC3)cc1F [Compound 26.08, 4-(((4-(3-Fluoro-4-methoxyphenyl)bicyclo[2.2.2]octan-1-yl)methyl)(4-(1-isopropyl-1H-pyrazol-4-yl)pyridin-2-yl)carbamoyl)cyclohexyl trans-3-hydroxyazetidine-1-carboxylate]
≥ 7.30 | COc1ccc(C23CCC(CN(c4cc(-c5cnn(C6CCC6)c5)ccn4)C(=O)[C@H]4CC[C@H](OC(=O)N5CC(O)C5)CC4)(CC2)CC3)cc1C [Compound 23.08, 4-((4-(1-Cyclobutyl-1H-pyrazol-4-yl)pyridin-2-yl)((4-(4-methoxy-3-methylphenyl)bicyclo[2.2.2]octan-1-yl)methyl)carbamoyl)(trans-cyclohexyl) 3-hydroxyazetidine-1-carboxylate]

Second part, the compound before the results:

Compound | pEC50
COc1ccc([C@H]2CC[C@H](CN(c3cc(-c4coc(C5CC5)n4)ccn3)C(=O)[C@H]3CC[C@H](OC(=O)NCC(C)(C)CO)CC3)CC2)nc1C [Compound 1, trans-4-((4-(2-Cyclopropyloxazol-4-yl)pyridin-2-yl)((trans-4-(5-methoxy-6-methylpyridin-2-yl)cyclohexyl)methyl)carbamoyl)cyclohexyl (3-hydroxy-2,2-dimethylpropyl)carbamate] | ≥ 7.30
COc1ncc(C23CCC(CN(c4cc(-c5cnn(C(C)C)c5)ccn4)C(=O)[C@H]4CC[C@H](OC(=O)N5CC(O)C5)CC4)(CC2)CC3)cc1C [Compound 26, 4-((4-(1-Isopropyl-1H-pyrazol-4-yl)pyridin-2-yl)((4-(6-methoxy-5-methylpyridin-3-yl)bicyclo[2.2.2]octan-1-yl)methyl)carbamoyl)cyclohexyl trans-3-hydroxyazetidine-1-carboxylate] | ≥ 7.30
COc1ccc(C23CCC(CN(c4cc(-c5cnn(C(C)C)c5)ccn4)C(=O)[C@H]4CC[C@H](OC(=O)N5CC(CS(C)(=O)=O)C5)CC4)(CC2)CC3)cc1C [Compound 4.44, 4-((4-(1-Isopropyl-1H-pyrazol-4-yl)pyridin-2-yl) ((4-(4-methoxy-3-methylphenyl)bicyclo [2.2.2]octan-1-yl)methyl)carbamoyl)cyclohexyl trans-3-((methylsulfonyl)methyl)azetidine-1-carboxylate] | ≥ 7.30
COc1ccc([C@H]2CC[C@H](CN(c3cc(-c4cnn(C(C)C)c4)ccn3)C(=O)[C@H]3CC[C@H](OC(=O)NCC(C)(C)CO)CC3)CC2)cc1C [Compound 2.20, trans-4-((4-(1-Isopropyl-1H-pyrazol-4-yl)pyridin-2-yl) ((trans-4-(4-methoxy-3-methylphenyl)cyclohexyl)methyl)carbamoyl) cyclohexyl(3-hydroxy-2,2-dimethylpropyl)carbamate] | ≥ 7.30
COc1ccc(C23CCC(CN(c4ccnc(-c5cnn(C(C)C)c5)c4)C(=O)[C@H]4CC[C@H](OC(=O)N5CC(O)C5)CC4)(CC2)CC3)cc1C [Compound 4.59, 4-((2-(1-Isopropyl-1H-pyrazol-4-yl)pyridin-4-yl) ((4-(4-methoxy-3-methylphenyl)bicyclo [2.2.2]octan-1-yl)methyl)carbamoyl)(trans-cyclohexyl) 3-hydroxyazetidine-1-carboxylate] | ≥ 7.30
COc1ccc(C23CCC(CN(c4cc(-c5cnn(C(C)C)c5)ccn4)C(=O)[C@H]4CC[C@H](NC(=O)C(C)(C)O)CC4)(CC2)CC3)cc1C [Compound 9.03] | ≥ 7.30
COc1ccc(C23CCC(CN(c4cc(-c5cnc(C6CC6)s5)ccn4)C(=O)[C@H]4CC[C@H](NC(C)=O)CC4)(CC2)CC3)cc1C [Compound 9.06, (trans)-4-Acetamido-N-(4-(2-cyclopropylthiazol-5-yl)pyridin-2-yl)-N-((4-(4-methoxy-3-methylphenyl)bicyclo[2.2.2]octan-1-yl)methyl)cyclohexanecarboxamide] | ≥ 7.30
COc1ccc(C23CCC(CN(c4cc(-c5cnn(C(C)C)c5)ccn4)C(=O)[C@H]4CC[C@H](OC(=O)NCCC(C)(C)O)CC4)(CC2)CC3)cc1C [Compound 4.08, 4-((4-(1-Isopropyl-1H-pyrazol-4-yl)pyridin-2-yl)((4-(4-methoxy-3-methylphenyl)bicyclo [2.2.2]octan-1-yl)methyl)carbamoyl)cyclohexyl (3-hydroxy-3-methylbutyl)trans-carbamate] | ≥ 7.30
COc1ccc(C23CCC(CN(c4cc(-c5cnc(C(C)C)o5)ccn4)C(=O)[C@H]4CC[C@H](OC(=O)N5CC(O)C5)CC4)(CC2)CC3)cc1C [Compound 4.25, 4-((4-(2-Isopropyloxazol-5-yl)pyridin-2-yl)((4-(4-methoxy-3-methylphenyl)bicyclo[2.2.2]octan-1-yl)methyl)carbamoyl) cyclohexyl 3-hydroxyazetidine-trans-1-carboxylate] | ≥ 7.30
COc1ccc([C@H]2CC[C@H](CN(c3cc(-c4cnc(C(C)C)s4)ccn3)C(=O)[C@H]3CC[C@H](OC(=O)NC(C)C)CC3)CC2)cc1C [Compound 2.47, trans-4-((4-(2-Isopropylthiazol-5-yl)pyridin-2-yl)((trans-4-(4-methoxy-3-methylphenyl)cyclohexyl)methyl)carbamoyl)cyclohexyl isopropylcarbamate] | ≥ 7.30
COc1ccc([C@H]2CC[C@H](CN(c3cc(-c4coc(C(C)C)n4)ccn3)C(=O)[C@H]3CC[C@H](OC(=O)NCC(C)(C)O)CC3)CC2)cc1C [Compound 2.26, trans-4-((4-(2-Isopropyloxazol-4-yl)pyridin-2-yl)(((trans)-4-(4-methoxy-3-methylphenyl)cyclohexyl)methyl)carbamoyl)cyclohexyl (2-hydroxy-2-methylpropyl)carbamate] | ≥ 7.30
COc1ccc([C@H]2CC[C@H](CN(c3cccc(-c4cnn(C(C)C)c4)c3)C(=O)[C@H]3CC[C@H](OC(=O)NC[C@H](F)CO)CC3)CC2)cc1C [Compound 5.07, trans-4-((3-(1-Isopropyl-1H-pyrazol-4-yl)phenyl)(((trans)-4-(4-methoxy-3-methylphenyl)cyclohexyl)methyl)carbamoyl)cyclohexyl ((S)-2-fluoro-3-hydroxypropyl) carbamate] | ≥ 7.30
